What all share (type): cell-based, mouse
In one assay the test system is MEpG MECs (DG−/− or DG+). Briefly: Laminin internalization in dystroglycan-deleted or re-expressing cells, flow cytometry. The settings on record: n=6. An excerpt:
Genetic manipulation of laminin receptor expression was employed in order to identify the specific receptor(s) mediating laminin internalization. […] To test the role of DG in laminin internalization, an MEC cell line containing an engineered dystroglycan deletion (MEpG) was used (Weir M L et al, 2006 supra). The MEpG cell line was infected with retroviral empty vector (creating control DG−/− cells) or retrovirus expressing DG (creating DG+ cells). Immunoblotting confirmed the expected presence or absence of DG expression in these cell types (FIG. 11A). […] The compiled mean fluorescence intensity (MFI) data of cells expressing DG was nearly four-fold higher than cells lacking DG expression (DG+=18.04±4.6; DG−/−=4.84±1.43, n=6, FIG. 7C). Therefore, the majority of laminin internalization observed in functionally normal mammary epithelial cells appeared to depend on dystroglycan function.
(§1) Cell culture—Primary mammary epithelial cells from control or ΔDGK14-Cre mid-pregnant mice were obtained as previously described (Weir et al, 2006 supra). DG-knockout (MEpG and MEpL cells), and WT E3D1 mammary epithelial cells were established as described previously (Weir et al, 2006 supra) from floxed-DG mice. β1 int-knockout (E3D1 cre19) MECs were established from floxed -β1 int primary MECS, as above. MECs were grown in DME/F12, 2% FBS, 10 μg/ml insulin and 5 ng/ml EGF (BD Biosciences, San Jose, Calif., USA). Human DG, β1 int, or wedge β1 int genes (Luo B H et al, Proc Natl Acad Sci USA 102, 3679-3684 (2005); incorporated by reference herein) were cloned into the retroviral expression vector, pBMN-IRES-PURO as described previously (Weir et al, 2006 supra) and verified by sequencing. […] These cultures produced >95% astrocytes as determined by staining with GFAP astrocyte marker antibody.
(§2) Flow Cytometry—Cells were plated in 12 well plates at 200,000 cells/well. […] Using a BD FACScan flow cytometer (BD Biosciences, San Jose, Calif., USA), 10,000 cells/well were counted, background fluorescence from the cell counts with no added laminin subtracted and the mean fluorescence intensity values reported. […]

Assay [1] relates to E3D1cre19 MECs (β1 Int−/− or β1 Int+). Briefly: Laminin internalization in β1 integrin-deleted or re-expressing cells, flow cytometry.
Excerpt: The integrin family of ECM receptors is expressed in the DG−/− cell population (MepG-vec and MepL-vec cell lines, FIG. 11A), but are apparently unable to mediate significant laminin internalization alone (FIG. 7B). To directly test the role of integrins in laminin internalization, an MEC cell line containing an engineered β1 integrin (β1 int) deletion, E3D1cre19 (β1 Intl−/−) was used (cre19-vec, FIG. 11A, see Example 10 infra). These β1 int−/− cells were infected with the empty vector retrovirus or with a WT β1 int expressing retrovirus. The re-expression of WT β1 integrin in β1 int−/− cells produced a modest but statistically insignificant change ([…]) in laminin internalization (MFI β1 Intl−=21.4±3; β1 Int+=26.8±1.2; n=6, p=0.17) (FIG. 7D). […] Therefore, although the β1 integrins are not required for the majority laminin internalization, they can enhance it, possibly as co-receptors with DG (Leonoudakis D et al, 2010 supra; Weir M L et al, 2006 supra).
as §1, with “USA).” for “USA). Human DG, β1 int, or wedge β1 int genes (Luo B H et al, Proc Natl Acad Sci USA 102, 3679-3684 (2005); incorporated by reference herein) were cloned into the retroviral expression vector, pBMN-IRES-PURO as described previously (Weir et al, 2006 supra) and verified by sequencing.”
as §2
On the technique in general: Flow cytometry measures light scatter and fluorescence of single cells or particles in a stream.

Another assay concerns E3D1 MECs. The assay can be described thus: Pulsed time course of Rhod-Ln internalization, flow cytometry. As to the method:
To explore the dynamics of laminin internalization, steady-state time course experiments (measuring internalization in the continuous presence of labeled laminin) and pulsed time course experiments were performed. In pulsed time course experiments, the cells were exposed to exogenous Rhod-Ln at 4° C. to prevent internalization, excess unbound Rhod-Ln was washed away, and then cells were returned to 37° C. to allow synchronized internalization and trafficking to proceed. […] Following pulsed and synchronized laminin exposure, Rhod-Ln was again observed to internalize within 1 hour, but reached a maximum at 8 hours, after which the levels of internal laminin declined (FIG. 4A). After 24 hours, internal Rhod-Ln levels declined to ˜37% of the maxima, indicating degradation (MFI: 315±3.5 to 119±11.5). To determine if laminin was degraded using classical degradation pathways, pulsed time course experiments in the presence of leupeptin (lysosome inhibitor) or […] (proteasome inhibitor) were performed.
Laminin labeling—Laminin-111 (1 mg) (Sigma-Aldrich Corp., St. Louis, Mo., USA) was dialyzed twice overnight against 500 ml of PBS with 10 μM CaCl2. The dialyzed laminin was then reacted with 10 μg NHS-rhodamine, or a 50 fold molar excess of NHS409 CypHer5 (GE) for 2 hr on ice, followed by dialysis twice overnight against 500 ml of PBS with 10 μM CaCl2.
Flow Cytometry—Cells were plated in 12 well plates at 200,000 cells/well. The following day, media was changed to serum-free media with or without 10 μg/ml rhodamine laminin or 40 μg/ml FITC-dextran (500S-Sigma-Aldrich Corp., St. Louis, Mo., USA). Unless otherwise indicated, cells were incubated 18-24 hrs, washed once with PBS, and cells trypsinized. Cells were washed in 5 ml cold PBS/1 mM EDTA, pelleted, and resuspended in 1 ml PBS/1 mM EDTA. Using a BD FACScan flow cytometer (BD Biosciences, San Jose, Calif., USA), 10,000 cells/well were counted, background fluorescence from the cell counts with no added laminin subtracted and the mean fluorescence intensity values reported. Graphed data are compiled from duplicate wells from each experiment with a minimum of three separate experiments, unless indicated otherwise.

Take “Rhod-Ln: laminin-111 labeled with NHS-rhodamine; dystroglycan binding reagent”: in the assay on MEpG MECs (DG−/− or DG+) (cells expressing DG, 18 hours), the “MFI of internalized laminin, DG+ cells” value was found to be 18.04±4.6. Moreover, the “MFI of internalized laminin, DG−/− cells” value in the assay on MEpG MECs (DG−/− or DG+) (cells lacking DG, 18 hours) is recorded as 4.84±1.43. Moreover, the “more laminin internalized by DG+ MECs than DG−/− MECs” value with MEpG MECs (DG−/− or DG+) (compiled MFI) came out at 380%. Besides, the “MFI of internalized laminin, β1 Int+ cells” value in assay [1] (WT β1 integrin re-expressed, n=6) turned out to be 26.8±1.2. The “MFI of internalized laminin, β1 Int−/− cells” value in assay [1] (empty vector, n=6) is recorded as 21.4±3. Besides, in assay [1] (statistically insignificant, p=0.17), the “increase in laminin internalization on re-expression of WT β1 integrin” value stood at 20%. Besides, the “time at which Rhod-Ln was observed to internalize” value in the assay with E3D1 MECs (pulsed and synchronized laminin exposure, 4° C. then 37° C.) is no more than 1 h. The “time of maximum internal laminin” value in the assay on E3D1 MECs (pulsed laminin exposure) was found to be 8 h. Also, in the assay on E3D1 MECs (pulsed, 24 hours), the “MFI of internal Rhod-Ln after 24 hours” value amounted to 119±11.5. For the same substance, in the assay with E3D1 MECs (pulsed, after 24 hours), the “internal Rhod-Ln level relative to the maxima” value was roughly 37%. Also, the “MFI of internal Rhod-Ln at the maximum” value with E3D1 MECs (pulsed, maximum (8 hours)) was 315±3.5.

The values are drawn from patent US20170307610A1, “COMPOUNDS THAT BIND DYSTROGLYCAN AND USES THEREOF” (OREGON HEALTH & SCIENCE UNIVERSITY, priority 2014, published 2017).
